Results from ChEMBL document CHEMBL1153038, “Eusynstyelamides A, B, and C, nNOS inhibitors, from the ascidian Eusynstyela latericius” (J Nat Prod, 2009).

Assays:
Staphylococcus aureus = test: Antibacterial activity against Staphylococcus aureus after 24 hrs by microtiter dilution assay; assay type: functional, organism-based
NCI-H460 = test: Cytotoxicity against human H460 cells upto […] by SRB assay; assay type: functional, cell-based
MCF7 = test: Cytotoxicity against human MCF7 cells upto […] by SRB assay; assay type: functional, cell-based
Nitric oxide synthase 1 = Nitric oxide synthase 1 (Rattus norvegicus, UniProt P29476); test: Inhibition of rat cerebella nNOS synthase assessed as [3H]arginine to [3H]citrulline conversion by microbeta scintillation counting
SF-268 = test: Cytotoxicity against human SF268 cells upto […] by SRB assay; assay type: functional, cell-based
HCT-116 = test: Cytotoxicity against human HCT116 cells; assay type: functional, cell-based

Nitric oxide synthase 1, sequence (P29476 whole entry): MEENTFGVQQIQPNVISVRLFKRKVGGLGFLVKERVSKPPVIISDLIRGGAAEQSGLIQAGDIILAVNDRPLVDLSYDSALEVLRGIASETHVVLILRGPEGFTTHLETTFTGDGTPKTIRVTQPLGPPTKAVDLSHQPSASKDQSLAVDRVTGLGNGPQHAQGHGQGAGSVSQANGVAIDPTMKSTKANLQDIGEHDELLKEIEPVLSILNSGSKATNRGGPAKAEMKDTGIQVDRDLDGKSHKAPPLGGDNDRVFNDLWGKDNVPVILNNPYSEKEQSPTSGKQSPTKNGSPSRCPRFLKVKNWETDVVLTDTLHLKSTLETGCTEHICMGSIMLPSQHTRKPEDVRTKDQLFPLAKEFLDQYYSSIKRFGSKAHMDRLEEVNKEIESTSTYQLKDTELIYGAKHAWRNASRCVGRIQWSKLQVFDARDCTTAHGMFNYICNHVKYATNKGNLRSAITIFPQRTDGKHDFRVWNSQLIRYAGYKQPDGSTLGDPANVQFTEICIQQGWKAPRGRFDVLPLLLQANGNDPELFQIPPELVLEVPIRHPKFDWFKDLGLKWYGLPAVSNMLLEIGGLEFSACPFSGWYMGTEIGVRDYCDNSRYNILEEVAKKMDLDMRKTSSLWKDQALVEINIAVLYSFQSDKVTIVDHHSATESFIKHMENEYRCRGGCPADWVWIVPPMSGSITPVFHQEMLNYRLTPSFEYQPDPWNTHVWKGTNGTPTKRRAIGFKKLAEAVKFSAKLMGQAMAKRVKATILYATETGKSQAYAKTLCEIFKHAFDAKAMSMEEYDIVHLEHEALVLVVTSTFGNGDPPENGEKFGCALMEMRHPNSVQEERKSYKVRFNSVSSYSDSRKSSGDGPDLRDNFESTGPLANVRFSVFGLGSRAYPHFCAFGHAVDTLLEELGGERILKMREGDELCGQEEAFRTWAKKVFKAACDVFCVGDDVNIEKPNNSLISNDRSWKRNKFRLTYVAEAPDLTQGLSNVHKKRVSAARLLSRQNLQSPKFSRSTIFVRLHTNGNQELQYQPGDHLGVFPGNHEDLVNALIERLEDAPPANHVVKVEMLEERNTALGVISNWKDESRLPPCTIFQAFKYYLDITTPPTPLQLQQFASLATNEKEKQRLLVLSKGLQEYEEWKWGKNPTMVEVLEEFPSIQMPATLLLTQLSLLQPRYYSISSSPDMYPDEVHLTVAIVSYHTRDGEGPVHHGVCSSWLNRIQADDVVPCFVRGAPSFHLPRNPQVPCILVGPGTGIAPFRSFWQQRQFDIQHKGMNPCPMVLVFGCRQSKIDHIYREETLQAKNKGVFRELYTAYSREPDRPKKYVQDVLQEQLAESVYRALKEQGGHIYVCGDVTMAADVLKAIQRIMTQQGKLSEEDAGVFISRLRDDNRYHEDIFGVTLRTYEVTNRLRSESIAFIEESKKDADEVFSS

Row | SMILES | IC50 (Staphylococcus aureus) | Activity (NCI-H460) | Activity (MCF7) | IC50 (Nitric oxide synthase 1) | Activity (SF-268) | IC50 (HCT-116)
1 | N=C(N)NCCCCNC(=O)[C@]1(O)[C@H](c2c[nH]c3cc(Br)ccc23)[C@@](O)(Cc2c[nH]c3cc(Br)ccc23)C(=O)N1CCCCNC(=N)N | 19 µM | Not toxic | Not toxic | 41.7 µM | Not toxic | –
2 | O=Cc1cc(O)c2nccc3c2c1Nc1ccccc1-3 [STYELSAMINE C] | – | – | – | – | – | 1.6 µM
3 | CC(=O)NCCc1cc(O)c2nccc3c2c1Nc1ccccc1-3 [STYELSAMINE B] | – | – | – | – | – | 1.6 µM
4 | N=C(N)NCCCCNC(=O)[C@@]1(O)[C@H](c2c[nH]c3cc(Br)ccc23)[C@](O)(Cc2c[nH]c3cc(Br)ccc23)C(=O)N1CCCCNC(=N)N | – | Not toxic | Not toxic | 5.8 µM | Not toxic | –
5 | NCC(O)c1cc(O)c2nccc3c2c1Nc1ccccc1-3 (centres undefined) [STYELSAMINE A] | – | – | – | – | – | 1.6 µM
6 | N=C(N)NCCCCNC(=O)[C@@]1(O)[C@H](c2c[nH]c3cc(Br)ccc23)[C@@](O)(Cc2c[nH]c3cc(Br)ccc23)C(=O)N1CCCCNC(=N)N | 6.5 µM | Not toxic | Not toxic | 4.3 µM | Not toxic | –
7 | N=C(N)NCCCCNC(=O)C(O)(O)C(c1c[nH]c2cc(Br)ccc12)C(O)(Cc1c[nH]c2cc(Br)ccc12)C(=O)NCCCCNC(=N)N (centres undefined) [EUSYNSTYELAMIDE] | – | – | – | – | – | 100 µM
8 | NCCc1cc(O)c2nccc3c2c1Nc1ccccc1-3 [STYELSAMINE D] | – | – | – | – | – | 1.6 µM
